Assay: xn = mol fraction of the nth substance listed
Settings: Constant-volume piezometry

CCCCC [pentane] + CCCO
Settings | mass density [kg/m3]
483.15 K, 3273 kPa, Gas, x1 = 0.5 | 89.08
483.15 K, 3361 kPa, Gas, x1 = 0.5 | 96.03
483.15 K, 3529 kPa, Gas, x1 = 0.8 | 106.6
483.15 K, 3605 kPa, Fluid (supercritical or subcritical phases), x1 = 0.9 | 123.58
483.15 K, 3709 kPa, Fluid (supercritical or subcritical phases), x1 = 0.9 | 134.38
483.15 K, 3900 kPa, Fluid (supercritical or subcritical phases), x1 = 0.9 | 164.27
483.15 K, 3917 kPa, Fluid (supercritical or subcritical phases), x1 = 0.8 | 140.58
483.15 K, 3927 kPa, Liquid, x1 = 0.5 | 373.66
483.15 K, 3981 kPa, Fluid (supercritical or subcritical phases), x1 = 0.8 | 156.35
483.15 K, 4002 kPa, Fluid (supercritical or subcritical phases), x1 = 0.9 | 189.82
483.15 K, 4026 kPa, Liquid, x1 = 0.5 | 384.78
483.15 K, 4033 kPa, Fluid (supercritical or subcritical phases), x1 = 0.8 | 170.11
483.15 K, 4049 kPa, Fluid (supercritical or subcritical phases), x1 = 0.9 | 202.77
483.15 K, 4053 kPa, Fluid (supercritical or subcritical phases), x1 = 0.8 | 176.37
483.15 K, 4071 kPa, Fluid (supercritical or subcritical phases), x1 = 0.8 | 181.18
483.15 K, 4106 kPa, Fluid (supercritical or subcritical phases), x1 = 0.8 | 193.54
483.15 K, 4109 kPa, Fluid (supercritical or subcritical phases), x1 = 0.9 | 221.12
483.15 K, 4156 kPa, Fluid (supercritical or subcritical phases), x1 = 0.9 | 233.52
483.15 K, 4162 kPa, Fluid (supercritical or subcritical phases), x1 = 0.8 | 214.27
483.15 K, 4171 kPa, Fluid (supercritical or subcritical phases), x1 = 0.9 | 236.99
483.15 K, 4179 kPa, Fluid (supercritical or subcritical phases), x1 = 0.8 | 220.05
483.15 K, 4189 kPa, Fluid (supercritical or subcritical phases), x1 = 0.9 | 241.4
483.15 K, 4200 kPa, Fluid (supercritical or subcritical phases), x1 = 0.9 | 244.72
483.15 K, 4211 kPa, Fluid (supercritical or subcritical phases), x1 = 0.8 | 235.17
483.15 K, 4239 kPa, Fluid (supercritical or subcritical phases), x1 = 0.8 | 245.83
483.15 K, 4277 kPa, Fluid (supercritical or subcritical phases), x1 = 0.8 | 259.08
483.15 K, 4309 kPa, Fluid (supercritical or subcritical phases), x1 = 0.9 | 282.57
483.15 K, 4317 kPa, Fluid (supercritical or subcritical phases), x1 = 0.8 | 273.08
483.15 K, 4417 kPa, Fluid (supercritical or subcritical phases), x1 = 0.8 | 288.96
483.15 K, 4435 kPa, Fluid (supercritical or subcritical phases), x1 = 0.9 | 302.29
483.15 K, 4437 kPa, Liquid, x1 = 0.5 | 398.98
483.15 K, 4493 kPa, Fluid (supercritical or subcritical phases), x1 = 0.8 | 299.8
483.15 K, 4551 kPa, Fluid (supercritical or subcritical phases), x1 = 0.9 | 312.96
483.15 K, 4646 kPa, Fluid (supercritical or subcritical phases), x1 = 0.8 | 316.01
483.15 K, 4807 kPa, Liquid, x1 = 0.2 | 510.78
483.15 K, 4877 kPa, Fluid (supercritical or subcritical phases), x1 = 0.9 | 334.72
483.15 K, 4915 kPa, Fluid (supercritical or subcritical phases), x1 = 0.8 | 334.54
483.15 K, 5017 kPa, Liquid, x1 = 0.5 | 418.13
483.15 K, 5178 kPa, Fluid (supercritical or subcritical phases), x1 = 0.8 | 346.09
483.15 K, 5428 kPa, Fluid (supercritical or subcritical phases), x1 = 0.9 | 354.86
483.15 K, 5641 kPa, Fluid (supercritical or subcritical phases), x1 = 0.8 | 362.7
483.15 K, 6347 kPa, Liquid, x1 = 0.5 | 441.94
483.15 K, 7296 kPa, Liquid, x1 = 0.5 | 452.28
483.15 K, 8060 kPa, Liquid, x1 = 0.5 | 459.37
483.15 K, 8482 kPa, Fluid (supercritical or subcritical phases), x1 = 0.9 | 408.19
483.15 K, 8984 kPa, Fluid (supercritical or subcritical phases), x1 = 0.8 | 419.13
483.15 K, 9371 kPa, Liquid, x1 = 0.5 | 469.23
483.15 K, 10899 kPa, Liquid, x1 = 0.2 | 548.38
483.15 K, 16393 kPa, Fluid (supercritical or subcritical phases), x1 = 0.8 | 467.78
483.15 K, 16725 kPa, Liquid, x1 = 0.5 | 507.77
483.15 K, 19754 kPa, Liquid, x1 = 0.5 | 520.6
483.15 K, 21392 kPa, Liquid, x1 = 0.2 | 582.82
483.15 K, 24098 kPa, Fluid (supercritical or subcritical phases), x1 = 0.8 | 497.3
483.15 K, 27685 kPa, Liquid, x1 = 0.2 | 596.46
483.15 K, 28654 kPa, Liquid, x1 = 0.5 | 549.54
483.15 K, 34153 kPa, Fluid (supercritical or subcritical phases), x1 = 0.8 | 521.9
483.15 K, 37683 kPa, Liquid, x1 = 0.2 | 615.9
484.15 K, 3395 kPa, Gas, x1 = 0.5 | 96.03
485.15 K, 3427 kPa, Gas, x1 = 0.5 | 96.02
486.15 K, 3456 kPa, Gas, x1 = 0.5 | 96.02
487.15 K, 3750 kPa, Gas, x1 = 0.5 | 122.1
487.15 K, 4130 kPa, Liquid, x1 = 0.5 | 345.19
488.15 K, 3498 kPa, Gas, x1 = 0.5 | 96.01
488.15 K, 3783 kPa, Gas, x1 = 0.5 | 122.1
488.15 K, 4237 kPa, Liquid, x1 = 0.5 | 345.17
489.15 K, 3815 kPa, Gas, x1 = 0.5 | 122.09
489.15 K, 4203 kPa, Liquid, x1 = 0.5 | 325.83
490.15 K, 3453 kPa, Liquid, x1 = 0.2 | 471.25
491.15 K, 4012 kPa, Gas, x1 = 0.5 | 144.34

mass density [kg/m3], Liquid
Settings | 486.15 K | 488.75 K | 489.55 K | 489.85 K | 491.65 K
x1 = 0.2 | – | – | – | 471.25 | –
x1 = 0.5 | 345.21 | 325.84 | 320.54 | – | 299.15

Source: the NIST ThermoML archive (doi:10.1016/j.jct.2016.10.023)
